Where a SMILES comes first, the peptide text is derived from it. The star is where a group is joined. CHN2 = [N-]=[N+]=C*

This test deals with PC12 cells. As to the kind of experiment: KCN-induced necrosis of PC12 cells, LDH release. It counts as cell-based, rat. Conditions: for % protection at indicated concentration 0.1 nM / % protection at indicated concentration 1 nM / % protection at indicated concentration 10 nM / % protection at indicated concentration 100 nM / % protection at indicated concentration 1 μM / protection of cells at 10 μM: KCN-induced necrosis (Table 2); for KCN-induced necrotic cell death assessed by LDH release: PC12, KCN 5 hours, FIGS. 6, 7A-B; for inhibition at 1 µM / inhibition at 0.0001 µM / inhibition at 0.001 µM / inhibition at 0.01 µM / inhibition at 0.1 µM: Rattus norvegicus, PC-12, 5 h, KCN, PC12, LDH release (Table 5); for inhibition at 1 µM: read-out: % protection at 1 μM; for % protection at indicated concentration 0.1 nM / inhibition at 0.0001 µM: 0.1 nM; for inhibition at 0.0001 µM: read-out: % protection at 0.1 nM; for % protection at indicated concentration 1 nM / inhibition at 0.001 µM: 1 nM; for inhibition at 0.001 µM: read-out: % protection at 1 nM; for % protection at indicated concentration 10 nM / inhibition at 0.01 µM: 10 nM; for inhibition at 0.01 µM: read-out: % protection At 10 nM; for inhibition at 0.1 µM: read-out: % protection at 0.1 μM. How it is done: The rat pheochromocytoma PC12 cell line was propagated in DMEM medium (Beit Haemek, Israel), supplemented with 5% heat-inactivated calf serum, 10% heat-inactivated horse serum, 2 mM L-glutamine, 100 U/ml penicillin and 100 μg/ml streptomycin. PC12 cells in logarithmic phase were seeded at a concentration of 1.2×10^5/well in 96-well plates and incubated overnight.
Thereafter, the cells were washed twice and maintained in RPMI-1640 (U-937cells) and DMEM (PC-12 cells) glucose-free medium, supplemented with 2 mM pyruvate and 10% dialyzed FCS for one hour. Then cells were treated with or without KCN (Merck, Germany) at the indicated concentrations for 7 hours (U-937 cells), or for 5 hours (PC12 cells).
Elastase inhibitors II (MeOSuc-AAPA-CMK) and elastase inhibitor III (MeOSuc-AAPV-CMK) were purchased from Calbiochem-Novabiochem, USA. Compound Gly-Phe diazomethylketone was purchased from MP Biomedicals, USA. All the compounds disclosed in Table 1 hereinabove were purchased from ChemDiv, San Diego, CA. The compounds were dissolved in DMSO and were administered 30 min before addition of the cell death inducer. The final concentration of DMSO, added to all samples, was 0.1%, which had no effect by itself siRNA and cell transfection
The amount of LDH released from lysed cells is a sensitive measure of cell death. Necrotic cell death was measured in 96-well plates using Promega CytoTox 96 LDH assay kit. LDH content from the cells lysed in 0.1% Triton X-100 for 10 min was used as an index of total LDH. The LDH released in culture medium was used as an index of necrotic cell death and the percentage from total LDH was calculated. The protection by the inhibitor was calculated based on comparing percentage of LDH release in the presence and in the absence of the inhibitor. The inhibitors were also added to totals, blanks and controls. Absorbance at 490 nm was measured by ELISA reader (BioTec).
These compounds were tested for their ability to inhibit necrosis induced by KCN in PC12 cells. The necrotic mode of cell death in this system was validated as previously described. PC12 cells were challenged with KCN as described above. The protective results of the compounds against KCN-induced necrosis assessed using LDH release method are shown below in Table 5. The IC50 values of these inhibitors is in the range of tens to single nanomolar.
For orientation: LDH leaks from cells whose membrane has failed.

With `O=C(C1CCCC1)N1CCN=C1N1CCCC1` [M059-0082, cyclopentyl(2-(pyrrolidin-1-yl)-4,5-dihydro-1H-imidazol-1-yl)methanone], the “% protection at indicated concentration 0.1 nM” value stood at 33%, the “% protection at indicated concentration 1 nM” value is 25%, the “% protection at indicated concentration 10 nM” value amounted to 51% and the “% protection at indicated concentration 100 nM” value is given as 79%. The “% protection at indicated concentration 1 μM” value is on record as 85%.

Regarding `CC(C)C[C@H](NC(=O)N[C@H](C(=O)N[C@@H](CCC(N)=O)C(=O)N[C@@H](C)C=O)[C@@H]1CCNC(=N)N1)C(=O)O` [elastatinal, reference compound], the “KCN-induced necrotic cell death assessed by LDH release” value is listed as “no protective effect”.

With `O=C(c1ccccc1F)N1CCN=C1N1CCCCC1` [M059-0216, (2-fluorophenyl)-[2-(1-piperidyl)-4,5-dihydroimidazol-1-yl] methanone], the “protection of cells at 10 μM” value was 10 μM confers protection 71% of cells.

`CCCC(=O)N1CCN=C1N1CCCCC1` [M059-0335, 1-(2-(piperidin-1-yl)-4,5-dihydro-1H-imidazol-1-yl)butan-1-one]: the inhibition at 1 µM came to 47%.

As for `O=C(CC1CCCC1)N1CCN=C1N1CCCC1` [M059-0055, 2-cyclopentyl-1-(2-(pyrrolidin-1-yl)-4,5-dihydro-1H-imidazol-1-yl)ethanone], the inhibition at 1 µM was 68%.

Turning to `O=C(c1ccco1)N1CCN=C1N1CCCC1` [M059-0032, furan-2-yl(2-(pyrrolidin-1-yl)-4,5-dihydro-1H-imidazol-1-yl)methanone], the inhibition at 0.0001 µM turned out to be 7%, the inhibition at 0.001 µM amounted to 25%, the inhibition at 0.01 µM came to 37% and the inhibition at 0.1 µM is 59%. Further, the inhibition at 1 µM stood at 72%.

Consider `COc1cc(OC)cc(-c2nc3ccc(Br)cc3c(=O)o2)c1` [3952-1000, 6-bromo-2-(3,5-dimethoxyphenyl)-4H-benzo[d][1,3]oxazin-4-one], for which the “% protection at indicated concentration 0.1 nM” value was determined as 35%, the “% protection at indicated concentration 1 nM” value is given as 33%, the “% protection at indicated concentration 10 nM” value amounted to 38% and the “% protection at indicated concentration 100 nM” value stood at 35%. In addition, the “% protection at indicated concentration 1 μM” value turned out to be 77%, the inhibition at 0.0001 µM was 35%, the inhibition at 0.001 µM was 33% and the inhibition at 0.01 µM turned out to be 38%. The inhibition at 0.1 µM is 35% and the inhibition at 1 µM was found to be 77%.

For `CCOC(=O)C1=C(C)N(CC(=O)NCc2ccc(C)cc2)c2ncnn2C1c1ccccc1` (centres unmarked) [D529-0049, ethyl 5-methyl-4-(2-((4-methylbenzyl)amino)-2-oxoethyl)-7-phenyl-4,7-dihydro-[1,2,4]triazolo[1,5-a]pyrimidine-6-carboxylate], the inhibition at 0.01 µM was 33%, the inhibition at 0.1 µM worked out at 42% and the inhibition at 1 µM was found to be 51%.

As for `CCN1CCN(c2c(C)c(C)nc3ncnn23)CC1` [Z606-8336, 7-(4-ethylpiperazin-1-yl)-5,6-dimethyl-[1,2,4]triazolo[1,5-a]pyrimidine], the inhibition at 0.0001 µM came to 29%, the inhibition at 0.001 µM was 35%, the inhibition at 0.01 µM was 54% and the inhibition at 0.1 µM came out at 64%. For the same compound, the inhibition at 1 µM came out at 75%.

`O=C(c1ccccc1Cl)N1CCN=C1N1CCCCC1` [M059-0326, (2-chlorophenyl)-[2-(1-piperidyl)-4,5-dihydroimidazol-1-yl] methanone]: the “protection of cells at 10 μM” value is recorded as 10 μM confers protection 56% of cells.

Regarding `O=C(O)Cn1nnc(-c2ccncc2)n1` [8018-2960, 2-(5-(pyridin-4-yl)-2H-tetrazol-2-yl)acetic acid], the inhibition at 0.0001 µM was found to be 38%, the inhibition at 0.001 µM amounted to 25%, the inhibition at 0.01 µM was found to be 54% and the inhibition at 0.1 µM came to 80%. Also, the inhibition at 1 µM was found to be 84%.

Take `Cn1c(=O)[nH]c(=O)c2[nH]c(N3CCCCC3)nc21` [D226-0031, 3-methyl-8-(piperidin-1-yl)-1H-purine-2,6(3H,7H)-dione]: the inhibition at 0.0001 µM was determined as 29%, the inhibition at 0.001 µM amounted to 26%, the inhibition at 0.01 µM amounted to 43% and the inhibition at 0.1 µM was found to be 37%. Moreover, the inhibition at 1 µM worked out at 65%.

In the case of `CCN1CCN(C2=NCCN2C(=O)C2CCCC2)CC1` [M059-1012, cyclopentyl(2-(4-ethylpiperazin-1-yl)-4,5-dihydro-1H-imidazol-1-yl)methanone], the inhibition at 0.1 µM is 51%.

`O=C1C(NS(=O)(=O)c2ccc(Cl)s2)CCN1c1ccccc1` (centres unmarked) [P316-0028, 5-chloro-N-(2-oxo-1-phenylpyrrolidin-3-yl)thiophene-2-sulfonamide]: the inhibition at 0.01 µM was determined as 43%, the inhibition at 0.1 µM was found to be 49% and the inhibition at 1 µM was 53%.

With `O=C(O)c1nc2ncccn2n1` [R052-2664, [1,2,4]triazolo[1,5-a]pyrimidine-2-carboxylic acid], the inhibition at 0.01 µM was 21%, the inhibition at 0.1 µM is 49% and the inhibition at 1 µM was determined as 50%.

As to `CCc1ccccc1S(=O)(=O)Nc1ccc(N2CCN(CC)CC2)cc1C(=O)O` [F684-0507, 2-(2-ethylphenylsulfonamido)-5-(4-ethylpiperazin-1-yl)benzoic acid], the inhibition at 1 µM worked out at 56%.

As for `CC1Cc2ccccc2N1S(=O)(=O)c1ccc(C(=O)O)cc1` (centres unmarked) [D216-0746, 4-((2-methylindolin-1-yl)sulfonyl)benzoic acid], the inhibition at 0.0001 µM amounted to 29%, the inhibition at 0.001 µM is 37%, the inhibition at 0.01 µM is 47% and the inhibition at 0.1 µM amounted to 84%. In addition, the inhibition at 1 µM came to 90%.

`CC(C)c1cc(C2CCCN2C(=O)C2CC2)no1` (centres unmarked) [Z632-2266, cyclopropyl(2-(5-isopropylisoxazol-3-yl)pyrrolidin-1-yl)methanone]: the inhibition at 0.0001 µM came to 13%, the inhibition at 0.001 µM was determined as 22%, the inhibition at 0.01 µM came to 46% and the inhibition at 0.1 µM turned out to be 78%. Further, the inhibition at 1 µM worked out at 93%.

For the compound `O=C(NCCNC(=O)c1nc(Cn2cc(Cl)cn2)no1)c1cccc(F)c1` [8019-5381, 3-((4-chloro-1H-pyrazol-1-yl)methyl)-N-(2-(3-fluorobenzamido)ethyl)-1,2,4-oxadiazole-5-carboxamide], the inhibition at 0.01 µM stood at 32%, the inhibition at 0.1 µM is 49% and the inhibition at 1 µM was found to be 56%.

On to `Cc1ccnc(Nc2nc(-c3cc(C)c(C)cc3C)cs2)c1` [M008-0111, N-(4-methylpyridin-2-yl)-4-(2,4,5-trimethylphenyl)thiazol-2-amine], for which the “% protection at indicated concentration 0.1 nM” value is listed as 29%, the “% protection at indicated concentration 1 nM” value came to 36%, the “% protection at indicated concentration 10 nM” value is 38% and the “% protection at indicated concentration 100 nM” value is recorded as 46%. Besides, the “% protection at indicated concentration 1 μM” value stood at 90%, the inhibition at 0.0001 µM was determined as 29%, the inhibition at 0.001 µM turned out to be 36% and the inhibition at 0.01 µM worked out at 38%. Besides, the inhibition at 0.1 µM stood at 46% and the inhibition at 1 µM stood at 90%.

On to `O=C(CN1C(=O)C2CCCN2C(=O)c2ccc(F)cc21)Nc1ccc(F)c(F)c1` (centres unmarked) [M284-0942, N-(3,4-difluorophenyl)-2-(8-fluoro-5,11-dioxo-2,3,11,11a-tetrahydro-1H-benzo[e]pyrrolo[1,2-a][1,4]diazepin-10(5H)-yl)acetamide], for which the inhibition at 0.1 µM was 52%.

Consider `[N-]=[N+]=CC(=O)[C@H](Cc1ccccc1)NC(=O)CN` [Gly-Phe-DMK, Gly-Phe-diazomethylketone, reference compound] (H-Gly-Phe-CHN2), for which the “KCN-induced necrotic cell death assessed by LDH release” value was “inhibited cell necrosis”.

Consider `CCC(CC)C(=O)N1CCN=C1N1CCCC1` [M059-0053, 2-ethyl-1-(2-(pyrrolidin-1-yl)-4,5-dihydro-1H-imidazol-1-yl)butan-1-one], for which the inhibition at 1 µM is 39%.

The values above are taken from patent US11945787B2, “Substituted imidazoles for preventing and/or treating cell or tissue necrosis” (Ela Pharma Ltd, priority 2015, dated 2024).
